In test [1] the test system is Staphylococcus aureus. The test can be described thus: Antibacterial activity against Staphylococcus aureus ATCC 25923 after 24 hrs by spectrophotometric analysis. It is filed as functional, organism-based.
In test [2] the test system is Staphylococcus aureus. The test can be described thus: Antibacterial activity against methicillin-resistant Staphylococcus aureus ATCC 700699 after 24 hrs by spectrophotometric analysis. It counts as functional, organism-based.
In test [3] the test system is Staphylococcus aureus. The test can be described thus: Antibacterial activity against Staphylococcus aureus ATCC 29213 after 24 hrs by spectrophotometric analysis. It counts as functional, organism-based.
Test [4] concerns Staphylococcus aureus. The test can be described thus: Antibacterial activity against gentamicin-resistant Staphylococcus aureus ATCC 33592 after 24 hrs by spectrophotometric analysis. It is filed as functional, organism-based.
The next test concerns Escherichia coli. The test can be described thus: Antibacterial activity against Escherichia coli after 24 hrs by spectrophotometric analysis. It is filed as functional, organism-based.
A further test concerns Klebsiella pneumoniae. The test can be described thus: Antibacterial activity against Klebsiella pneumoniae after 24 hrs by spectrophotometric analysis. It counts as functional, organism-based.
In test [5] the test system is Staphylococcus aureus. The test can be described thus: Antibacterial activity against Staphylococcus aureus ATCC 25923 by NCCLS two-fold dilution method. It is filed as functional. The settings on record: for MIC: Staphylococcus aureus, ATCC 25923.
Test [6] deals with Staphylococcus aureus. The test can be described thus: Antibacterial activity against methicillin-resistant Staphylococcus aureus ATCC 700699 by NCCLS two-fold dilution method. It counts as functional.
Test [7] deals with Staphylococcus aureus. The test can be described thus: Antibacterial activity against Staphylococcus aureus ATCC 29213 by NCCLS two-fold dilution method. It is filed as functional.
Test [8] deals with Staphylococcus aureus. The test can be described thus: Antibacterial activity against gentamicin-resistant Staphylococcus aureus ATCC 33592 by NCCLS two-fold dilution method. It is filed as functional.
[9] abbreviates: Staphylococcus aureus, ATCC 25923, 24 h.
The mark [10] stands for this setting: Staphylococcus aureus, ATCC 25923, 24 h, read-out: IC50.
Where [11] appears, read: Staphylococcus aureus, ATCC 700699, 24 h.
[12] abbreviates: Staphylococcus aureus, ATCC 700699, 24 h, read-out: IC50.
Where [13] appears, read: Staphylococcus aureus, ATCC 29213, 24 h.
[14] abbreviates: Staphylococcus aureus, ATCC 29213, 24 h, read-out: IC50.
[15] abbreviates: Staphylococcus aureus, ATCC 33592, 24 h.
[16] abbreviates: Staphylococcus aureus, ATCC 33592, 24 h, read-out: IC50.

In brackets after ≈: the same amount, converted by molar mass.

GENTAMICIN: the IC50 (usually the concentration that gives 50% inhibition) was 1.7 mg/L in the test on Staphylococcus aureus [1]; above 50 mg/L with Staphylococcus aureus [2]; above 50 mg/L in the test with Staphylococcus aureus [3]; above 50 mg/L in the test with Staphylococcus aureus [4]; 1.7 mg/L in the test with Escherichia coli; 1.7 mg/L in the test on Klebsiella pneumoniae.
Regarding `CCn1cc(C(=O)O)c(=O)c2cc(F)c(N3CCN(C(c4ccc(OC)c5ccccc45)c4nnnn4C(C)(C)C)CC3)cc21` (stereo not drawn), the “-logMIC” value with Staphylococcus aureus [5] is reported as 4.69. Also, the MIC (commonly the lowest concentration that inhibits growth of the organism) against Staphylococcus aureus [5] was found to be 12.5 mg/L (≈ 20.4 µM); in the test with Staphylococcus aureus [6], 12.5 mg/L (≈ 20.4 µM); against Staphylococcus aureus [7], 25 mg/L (≈ 40.7 µM); in the test with Staphylococcus aureus [8], 12.5 mg/L (≈ 20.4 µM); in the test on Staphylococcus aureus [1] (setting [9]), 18 mg/L (≈ 29.3 µM); in the test with Staphylococcus aureus [2] (setting [11]), 6.9 mg/L (≈ 11.2 µM). In addition, the MIC in the test with Staphylococcus aureus [3] (setting [13]) and in the test with Staphylococcus aureus [4] (setting [15]) was 50 mg/L (≈ 81.5 µM) each time. The IC50 with Staphylococcus aureus [1] (setting [10]) turned out to be 7 mg/L (≈ 11.4 µM); with Staphylococcus aureus [2] (setting [12]), 7.5 mg/L (≈ 12.2 µM); in the test on Staphylococcus aureus [3] (setting [14]) it was 50 mg/L (≈ 81.5 µM); in the test with Staphylococcus aureus [4] (setting [16]), 50 mg/L (≈ 81.5 µM).
For the compound `CC(C)(C)n1nnnc1C(c1ccncc1)N1CCN(c2cc3c(cc2F)c(=O)c(C(=O)O)cn3Cc2ccc(C(F)(F)F)cc2)CC1` (stereo not drawn), the “-logMIC” value in the test with Staphylococcus aureus [5] came out at 4.123. The MIC in the test on Staphylococcus aureus [5], with Staphylococcus aureus [6], with Staphylococcus aureus [7], against Staphylococcus aureus [8], in the test on Staphylococcus aureus [1] (setting [9]) and against Staphylococcus aureus [2] (setting [11]) was 50 mg/L (≈ 75.2 µM) in each case. Besides, the MIC in the test on Staphylococcus aureus [3] (setting [13]) and in the test on Staphylococcus aureus [4] (setting [15]) was 50 mg/L (≈ 75.2 µM) throughout. Besides, the IC50 with Staphylococcus aureus [1] (setting [10]), with Staphylococcus aureus [2] (setting [12]), in the test with Staphylococcus aureus [3] (setting [14]) and with Staphylococcus aureus [4] (setting [16]) was 50 mg/L (≈ 75.2 µM) throughout.
With `CCn1cc(C(=O)O)c(=O)c2cc(F)c(N3CCN(C(c4ccc(C(C)C)cc4)c4nnnn4C4CCCCC4)CC3)cc21` (stereo not drawn), in the test with Staphylococcus aureus [5], the “-logMIC” value came out at 4.682. For the same compound, the MIC in the test with Staphylococcus aureus [5] was 12.5 mg/L (≈ 20.8 µM); in the test on Staphylococcus aureus [6], 50 mg/L (≈ 83.1 µM); with Staphylococcus aureus [7] it was 12.5 mg/L (≈ 20.8 µM); in the test with Staphylococcus aureus [8] it was 3.12 mg/L (≈ 5.19 µM); with Staphylococcus aureus [1] (setting [9]), 19 mg/L (≈ 31.6 µM); against Staphylococcus aureus [2] (setting [11]) it was 50 mg/L (≈ 83.1 µM). Moreover, the results for the minimal inhibitory concentration (MIC) with Staphylococcus aureus [3] (setting [13]) and with Staphylococcus aureus [4] (setting [15]) were 3.3 mg/L (≈ 5.48 µM) and 1.6 mg/L (≈ 2.66 µM), respectively. The IC50 in the test on Staphylococcus aureus [1] (setting [10]) is 8 mg/L (≈ 13.3 µM); with Staphylococcus aureus [2] (setting [12]), 50 mg/L (≈ 83.1 µM); with Staphylococcus aureus [3] (setting [14]), 3.1 mg/L (≈ 5.15 µM); in the test on Staphylococcus aureus [4] (setting [16]), 1.5 mg/L (≈ 2.49 µM).
Regarding `CC(C)(C)n1nnnc1C(c1ccccc1)N1CCN(c2cc3c(cc2F)c(=O)c(C(=O)O)cn3Cc2ccc(C(F)(F)F)cc2)CC1` (stereo not drawn), the “-logMIC” value in the test on Staphylococcus aureus [5] was determined as 4.122. For the same compound, the minimum inhibitory concentration (MIC) against Staphylococcus aureus [5] came out at 50 mg/L (≈ 75.3 µM); in the test with Staphylococcus aureus [6] it was 25 mg/L (≈ 37.7 µM); against Staphylococcus aureus [7], 25 mg/L (≈ 37.7 µM); with Staphylococcus aureus [8], 12.5 mg/L (≈ 18.8 µM); in the test with Staphylococcus aureus [1] (setting [9]) it was 50 mg/L (≈ 75.3 µM); with Staphylococcus aureus [2] (setting [11]), 50 mg/L (≈ 75.3 µM). For the same compound, the MIC against Staphylococcus aureus [3] (setting [13]) and in the test on Staphylococcus aureus [4] (setting [15]) was 50 mg/L (≈ 75.3 µM) in each case. Further, the IC50 in the test with Staphylococcus aureus [1] (setting [10]), with Staphylococcus aureus [2] (setting [12]), in the test with Staphylococcus aureus [3] (setting [14]) and in the test with Staphylococcus aureus [4] (setting [16]) was 50 mg/L (≈ 75.3 µM) in each case.
`CC(C)(C)n1nnnc1C(c1ccco1)N1CCN(c2cc3c(cc2F)c(=O)c(C(=O)O)cn3Cc2ccc(C(F)(F)F)cc2)CC1` (stereo not drawn): the minimum inhibitory concentration (MIC) against Staphylococcus aureus [5] came to 50 mg/L (≈ 76.5 µM); in the test on Staphylococcus aureus [6] it was 50 mg/L (≈ 76.5 µM); against Staphylococcus aureus [7], 25 mg/L (≈ 38.2 µM); in the test on Staphylococcus aureus [8], 12.5 mg/L (≈ 19.1 µM); against Staphylococcus aureus [1] (setting [9]) it was 50 mg/L (≈ 76.5 µM); against Staphylococcus aureus [2] (setting [11]) it was 50 mg/L (≈ 76.5 µM). Also, the MIC in the test with Staphylococcus aureus [3] (setting [13]) and against Staphylococcus aureus [4] (setting [15]) was 50 mg/L (≈ 76.5 µM) throughout. Further, the half-maximal inhibitory concentration (IC50) in the test with Staphylococcus aureus [1] (setting [10]), in the test on Staphylococcus aureus [2] (setting [12]), in the test on Staphylococcus aureus [3] (setting [14]) and in the test with Staphylococcus aureus [4] (setting [16]) was 50 mg/L (≈ 76.5 µM) in each case.
Regarding `CCn1cc(C(=O)O)c(=O)c2cc(F)c(N3CCN(C(c4cccc5ccccc45)c4nnnn4C4CCCCC4)CC3)cc21` (stereo not drawn), the “-logMIC” value with Staphylococcus aureus [5] came out at 5.29. In addition, the minimum inhibitory concentration (MIC) was determined as 3.12 mg/L (≈ 5.12 µM) against Staphylococcus aureus [5]; 25 mg/L (≈ 41 µM) with Staphylococcus aureus [6]; 6.25 mg/L (≈ 10.3 µM) in the test with Staphylococcus aureus [7]; 3.12 mg/L (≈ 5.12 µM) against Staphylococcus aureus [8]; 1.4 mg/L (≈ 2.3 µM) against Staphylococcus aureus [1] (setting [9]); 8.2 mg/L (≈ 13.4 µM) in the test on Staphylococcus aureus [2] (setting [11]). Also, the minimal inhibitory concentration (MIC) against Staphylococcus aureus [3] (setting [13]) was 2.9 mg/L (≈ 4.76 µM); against Staphylococcus aureus [4] (setting [15]) it was 4.2 mg/L (≈ 6.89 µM). Moreover, the concentration for half-maximal inhibition (IC50) stood at 0.77 mg/L (≈ 1.26 µM) in the test on Staphylococcus aureus [1] (setting [10]), 3.7 mg/L (≈ 6.07 µM) in the test on Staphylococcus aureus [2] (setting [12]), 1.6 mg/L (≈ 2.62 µM) in the test on Staphylococcus aureus [3] (setting [14]) and 1.6 mg/L (≈ 2.62 µM) in the test with Staphylococcus aureus [4] (setting [16]).
